According to patent US4499099A, “Nortropane and granatane type compounds useful in treating psychosis” (Beecham Group p.l.c., priority 1981, dated 1985):
Where a name gives a salt, the structure may show the parent alone.

System: post-synaptic Dopamine (D.A.) receptors
Assay: Inhibition of Apomorphine Induced Climbing in the Mouse
Type: in vivo
Conditions: male CD1 mice, apomorphine 1 mg/kg s.c., test compound administered subcutaneously 30 minutes prior to apomorphine (b213 says pre-treated orally), climbing scored at 10 and 20 minutes, read-out: ED50 (dose that produced a 50% inhibition of apomorphine-induced climbing)
Procedure: The results in the following table are on illustration of the anti-psychotic activity of the present compounds as shown by Inhibition of Apomorphine Induced Climbing in the Mouse, a standard test.
The test is based on that described by Protais, P., Constantin, J. and Schwartz J. C. (1976), Psychopharmacology, 50, 1-6.
When mice are given a dose of 1 mg/kg apomorphine and then placed in an enclosed environment, such as an inverted wire cage, they are seen to climb around the walls. This behavioural phenomenon is thought to be a consequence of the stimulation of post-synaptic Dopamine (D.A.) receptors in the nucleus accumbens. Inhibition of apomorphine induced climbing is therefore indicative of post-synaptic D.A. receptor blockade in the accumbens.
Groups of 10 male CD1 mice, weighing 25-30 g were pre-treated orally with either graded doses of the test compound or vehicle, at appropriate time intervals before the subcutaneous administration of a sub-maximal dose of apomorphine (1 mg/kg). Immediately after the apomorphine injection the mice were placed in wire `climbing cages` and each animal was scored for climbing behaviour at 10 and 20 minutes post apomorphine as follows:
Four paws on cage floor=0
The test compound was administered subcutaneously 30 minutes prior to administration of apomorphine.
The total score was calculated for each group of mice and expressed as a percentage inhibition of climbing. [formula]
ED50's and fiducial limits were calculated according to the method of Litchfield and Wilcoxon, the ED50 being the dose that produced a 50% inhibition of apomorphine--induced climbing.

SMILES | ED50 [mg/kg]
COc1cc(SC)cc(C(=O)N[C@@H]2C[C@H]3CCC[C@@H](C2)N3Cc2ccc(F)cc2)c1OC [Example 4, 2,3-dimethoxy-5-methylthio-[N-(9-(4^1-fluorobenzyl)-9-azabicyclo(3.3.1)non-3β-yl)]benzamide] | 0.56
COc1cc(N)c(SC)cc1C(=O)N[C@@H]1C[C@H]2CCC[C@@H](C1)N2Cc1ccc(F)cc1 [Example 2, 4-Amino-2-methoxy-5-methylthio-[N-(9-(4^1-fluorobenzyl)-9-azabicyclo(3.3.1)non-3β-yl)]benzamide] | 0.32
COc1cc(SC)cc(C(=O)N[C@@H]2C[C@H]3CC[C@@H](C2)N3Cc2ccccc2)c1OC [Example 3, 2,3-Dimethoxy-5-methylthio-N[3β(8-benzyl-8-azabicyclo[3.2.1]octyl)]benzamide hydrochloride] | 0.44
COc1cc(N)c(SC)cc1C(=O)N[C@@H]1C[C@H]2CC[C@@H](C1)N2Cc1ccccc1 [Example 1, 4-Amino-2-methoxy-5-methylthio-N-[3-β-(8-benzyl-8-azabicyclo(3,2,1)octyl)]benzamide] | 0.66
